Structures can show the parent of a compound that is named as a salt. Where two headings read alike, the source gives them in different places.
Molecular target: T1, canine TRPM8 (Canis lupus familiaris, UniProt Q1A7N1)
T1 construct: expressed in transfected cells
Assay: In Vitro Canine TRPM8 Functional Assay (icilin-induced intracellular Ca2+, FLIPR/FDSS)
Assay type: cell-based
Conditions: for inhibition at 0.2 µM: HEK293, 0.2 μM compound, icilin activation, read-out: % Inh @ 0.2 μM
Procedure: The functional activity of representative compounds of the formula (I) of the present invention was quantified by measuring changes in intracellular calcium concentration using a Ca^2+-sensitive fluorescent dye. The changes in fluorescent signal were monitored by a fluorescence plate reader, either a FLIPR™ (Molecular Devices) or FDSS (Hamamatsu).
HEK293 cells stably expressing canine TRPM8 were routinely grown as monolayers in Dulbecco's minimum essential medium supplemented with 10% FBS, 2 mM L-glutamine, 100 units/mL penicillin, 100 ug/mL streptomycin and 400 μg/mL G418. Cells were maintained in 5% CO2 at 37° C. At 24 hr prior to assay, cells were seeded in black wall, clear-base poly-D-lysine coated 384-well plates (BD Biosciences, NJ, USA) at a density of 5,000 cells per well in culture medium and grown overnight in 5% CO2 at 37° C. On assay day, growth media was removed, and cells were loaded with Calcium 3 Dye (Molecular Devices) for 35 min at 37° C., under 5% CO2 and then incubated for 25 min at room temperature and atmosphere. Subsequently, cells were tested for agonist-induced increases in intracellular Ca^2+ levels using FLIPR™ or FDSS. Cells were treated with compounds of the formula (I) at varying concentrations and intracellular […] was measured for 5 min prior to the addition of icilin to all wells to achieve a final concentration that produces approximately an 80% maximal response.
Basal FI was subtracted prior to normalizing data to percent of maximal response. Curves were generated using the average of quadruplicate wells for each data point using nonlinear regression of either sigmoidal dose response or sigmoidal dose response (variable slope). Finally, the EC50 and IC50 values were calculated with the best-fit curve determined by GraphPad Prism

[1] = HEK293 cells stably expressing canine TRPM8
[2] = HEK293 cells stably expressing canine TRPM8, icilin at approx. 80% maximal response, eight-point concentration-response, read-out: IC50

T1 sequence (Q1A7N1 1-1104): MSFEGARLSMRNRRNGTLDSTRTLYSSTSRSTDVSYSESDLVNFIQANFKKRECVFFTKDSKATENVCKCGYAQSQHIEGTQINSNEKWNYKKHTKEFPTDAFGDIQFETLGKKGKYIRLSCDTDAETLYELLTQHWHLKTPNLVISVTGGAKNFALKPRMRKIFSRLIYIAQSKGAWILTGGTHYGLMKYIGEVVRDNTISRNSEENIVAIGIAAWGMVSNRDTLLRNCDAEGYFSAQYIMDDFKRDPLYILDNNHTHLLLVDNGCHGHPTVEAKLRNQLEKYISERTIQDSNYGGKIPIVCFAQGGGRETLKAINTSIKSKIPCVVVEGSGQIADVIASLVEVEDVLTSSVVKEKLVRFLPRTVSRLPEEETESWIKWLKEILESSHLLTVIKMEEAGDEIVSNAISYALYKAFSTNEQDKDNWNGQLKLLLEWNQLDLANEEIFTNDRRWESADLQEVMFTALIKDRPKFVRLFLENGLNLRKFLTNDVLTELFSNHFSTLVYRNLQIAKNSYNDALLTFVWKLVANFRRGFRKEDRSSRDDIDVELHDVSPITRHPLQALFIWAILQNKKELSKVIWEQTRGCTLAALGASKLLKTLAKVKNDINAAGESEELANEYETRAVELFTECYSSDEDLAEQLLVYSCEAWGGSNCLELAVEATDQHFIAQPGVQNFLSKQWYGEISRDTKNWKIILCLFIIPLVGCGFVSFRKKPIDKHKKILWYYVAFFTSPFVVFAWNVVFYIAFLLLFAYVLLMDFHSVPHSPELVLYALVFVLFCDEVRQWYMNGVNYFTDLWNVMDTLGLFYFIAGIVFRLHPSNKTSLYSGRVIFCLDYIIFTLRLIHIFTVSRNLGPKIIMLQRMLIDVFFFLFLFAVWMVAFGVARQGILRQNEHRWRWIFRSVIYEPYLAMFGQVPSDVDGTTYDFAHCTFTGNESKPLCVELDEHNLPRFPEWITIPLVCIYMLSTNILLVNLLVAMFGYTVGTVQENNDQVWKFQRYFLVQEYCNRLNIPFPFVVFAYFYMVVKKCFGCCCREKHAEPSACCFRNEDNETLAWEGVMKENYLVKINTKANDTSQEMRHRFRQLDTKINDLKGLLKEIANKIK

inhibition at 0.2 µM [1] | inhibition at 1 µM (re-test, 1 μM, 10 mM stock diluted with 100% DMSO prior to addition to assay buffer) | IC50 (re-test, 10 mM stock diluted with 100% DMSO prior to addition to assay buffer, read-out: calculated IC50) | IC50 [2] | Compound
101% |  |  | 1 nM | Cn1c(N(Cc2ccc(SC(F)(F)F)cc2)S(=O)(=O)c2ccccc2)nc2ccccc21 [compound 19]
102% |  |  | 1 nM | Cn1c(N(Cc2ccc(C(F)(F)F)c(F)c2)S(=O)(=O)c2ccccc2)nc2ccccc21 [compound 21]
102% |  |  | 6 nM | Cn1c(N(Cc2cc(C(F)(F)F)ccc2F)S(=O)(=O)c2ccccc2)nc2ccccc21 [compound 22]
102% |  |  | 2 nM | Cn1c(N(Cc2ccc(OC(F)F)cc2)S(=O)(=O)c2ccccc2)nc2ccccc21 [compound 23]
71% |  |  | 77 nM | CC(C)Cn1c(N(Cc2ccc(C(F)(F)F)cc2)S(=O)(=O)c2ccccc2)nc2ccccc21 [compound 24]
102% |  |  | 11 nM | Cn1c(N(Cc2ccc(OC(F)(F)F)cc2)S(=O)(=O)c2ccc(Cl)cc2)nc2ccccc21 [compound 26]
101% |  |  | 49 nM | Cn1c(N(Cc2ccc(OC(F)(F)F)cc2)S(=O)(=O)c2ccc(C(F)(F)F)cc2)nc2ccccc21 [compound 27]
95% |  |  | 6 nM | Cn1c(N(Cc2ccc(C(F)(F)F)cc2)S(=O)(=O)c2ccc(F)cc2)nc2ccccc21 [compound 28]
95% |  |  | 5 nM | CCn1c(N(Cc2ccc(OC(F)(F)F)cc2)S(=O)(=O)c2ccccc2)nc2ccccc21 [compound 29]
96% |  |  | 4 nM | CCn1c(N(Cc2ccc(C(F)(F)F)cc2)S(=O)(=O)c2ccccc2)nc2ccccc21 [compound 30]
96% |  |  | 33 nM | Cn1c(N(Cc2ccc(C(F)(F)F)cc2)S(=O)(=O)c2ccc(C(F)(F)F)cc2)nc2ccccc21 [compound 31]
94% |  |  | 6 nM | Cn1c(N(Cc2ccc(OC(F)(F)F)cc2)S(=O)(=O)c2ccc(F)cc2)nc2ccccc21 [compound 32]
102% |  |  | 7 nM | CCn1c(N(Cc2ccc(C(F)(F)F)c(F)c2)S(=O)(=O)c2ccccc2)nc2ccccc21 [compound 34]
102% |  |  | 11 nM | Cn1c(N(Cc2ccc(C(F)(F)F)c(F)c2)S(=O)(=O)c2ccc(F)cc2)nc2ccccc21 [compound 38]
102% |  |  | 10 nM | Cn1c(N(Cc2ccc(C(F)(F)F)c(F)c2)S(=O)(=O)c2ccc(Cl)cc2)nc2ccccc21 [compound 39]
101% |  |  | 60 nM | Cn1c(N(Cc2ccc(C(F)(F)F)c(F)c2)S(=O)(=O)c2ccc(C(F)(F)F)cc2)nc2ccccc21 [compound 40]
102% |  |  | 9 nM | Cn1c(N(Cc2ccc(C(F)(F)F)cc2)S(=O)(=O)c2ccc(Cl)cc2)nc2ccccc21 [compound 41]
100% |  |  | 4 nM | Cn1c(N(Cc2ccc(C(F)(F)F)cc2)S(=O)(=O)c2ccccc2)nc2cc(F)ccc21 [compound 43]
100% |  |  | 7 nM | CCn1c(N(Cc2ccc(C(F)(F)F)c(F)c2)S(=O)(=O)c2ccccc2)nc2cc(F)ccc21 [compound 48]
81% |  |  | 48 nM | CC(C)Cn1c(N(Cc2ccc(OC(F)(F)F)cc2)S(=O)(=O)c2ccccc2)nc2ccccc21 [compound 49]
82% |  |  | 37 nM | CC(C)Cn1c(N(Cc2ccc(C(F)(F)F)c(F)c2)S(=O)(=O)c2ccccc2)nc2ccccc21 [compound 50]

More lines, now with the values behind:

Compound | inhibition at 0.2 µM [1] | inhibition at 1 µM (re-test, 1 μM, 10 mM stock diluted with 100% DMSO prior to addition to assay buffer) | IC50 (re-test, 10 mM stock diluted with 100% DMSO prior to addition to assay buffer, read-out: calculated IC50) | IC50 [2]
CCCCN(c1nc2ccccc2n1Cc1ccccc1)S(=O)(=O)c1ccccc1 [Compound #1, N-(1-benzyl-1H-benzimidazol-2-yl)-N-butyl-benzenesulfonamide] | 19% |  |  | 
CN(c1nc2ccccc2n1C)S(=O)(=O)c1ccccc1 [Compound #3, N-methyl-N-(1-methyl-1H-benzimidazol-2-yl)-benzenesulfonamide] | 9% | 101% | 94 nM | 
CCCCN(c1nc2ccccc2n1C)S(=O)(=O)c1ccccc1 [Compound #4, N-Butyl-N-(1-methyl-1H-benzimidazol-2-yl)-benzenesulfonamide] | 92% |  |  | 41 nM
Cn1c(N(Cc2cccc(C(F)(F)F)c2)S(=O)(=O)c2ccccc2)nc2ccccc21 [Compound #12, N-(1-Methyl-1H-benzimidazol-2-yl)-N-(3-trifluoromethyl-benzyl)-benzenesulfonamide] | 102% |  |  | 3 nM
Cn1c(N(c2ccc(Cl)cc2)S(=O)(=O)c2ccccc2)nc2ccccc21 [Compound #36, N-(4-Chloro-phenyl)-N-(1-methyl-1H-benzimidazol-2-yl)-benzenesulfonamide] | 94% |  |  | 33 nM
O=S(=O)(c1ccccc1)N(Cc1ccc(C(F)(F)F)c(F)c1)c1nc2ccccc2n1CC(F)(F)F [Compound #60, N-(3-Fluoro-4-trifluoromethyl-benzyl)-N-[1-(2,2,2-trifluoro-ethyl)-1H-benzimidazol-2-yl]-benzenesulfonamide] | 89% |  |  | 27 nM
O=S(=O)(c1ccccc1)N(Cc1ccc(C(F)(F)F)c(F)c1)c1nc2ccccc2n1CC1CC1 [Compound #71, N-(1-Cyclopropylmethyl-1H-benzimidazol-2-yl)-N-(3-fluoro-4-trifluoromethyl-benzyl)-benzenesulfonamide] | 101% |  |  | 37 nM
O=S(=O)(c1ccccc1)N(Cc1ccc(C(F)(F)F)cc1)c1nc2cccc3c2n1CCO3 [Compound #72, N-(3,4-Dihydro-5-oxa-1,2a-diaza-acenaphthylen-2-yl)-N-(4-trifluoromethyl-benzyl)-benzenesulfonamide TFA salt] | 99% |  |  | 22 nM
O=S(=O)(c1ccccc1)N(Cc1ccc(OC(F)(F)F)cc1)c1nc2cccc3c2n1CCO3 [Compound #73] | 99% |  |  | 3.4 nM
CCCCN(c1nc2ccccc2n1CCO)S(=O)(=O)c1ccccc1 [compound 2, N-butyl-N-[1-(2-hydroxy-ethyl)-1H-benzimidazol-2-yl]-benzenesulfonamide] | 11% |  |  | 
Cn1c(N(Cc2ccc(F)cc2)S(=O)(=O)c2ccccc2)nc2ccccc21 [compound 8] | 101% |  |  | 4 nM
Cn1c(N(Cc2ccc(F)c(F)c2)S(=O)(=O)c2ccccc2)nc2ccccc21 [compound 9] | 101% |  |  | 2 nM
Cn1c(N(Cc2ccccc2)S(=O)(=O)c2ccccc2)nc2ccccc21 [compound 10] | 101% |  |  | 8 nM
Cn1c(N(Cc2ccc(C(F)(F)F)cc2)S(=O)(=O)c2ccccc2)nc2ccccc21 [compound 11] | 101% |  |  | 2 nM
Cn1c(N(Cc2cccc(OC(F)(F)F)c2)S(=O)(=O)c2ccccc2)nc2ccccc21 [compound 13] | 101% |  |  | 3 nM
Cn1c(N(Cc2ccc(F)c(C(F)(F)F)c2)S(=O)(=O)c2cccc(Cl)c2)nc2ccccc21 [compound 14] | 97% |  |  | 30 nM
Cn1c(N(Cc2ccc(F)c(C(F)(F)F)c2)S(C)(=O)=O)nc2ccccc21 [compound 17] | 99% |  |  | 5 nM
Cc1ccc(S(=O)(=O)N(Cc2ccc(F)c(C(F)(F)F)c2)c2nc3ccccc3n2C)cc1 [compound 18] | 106% |  |  | 14 nM
